{"source": "patent US20110059869A1", "about": "“Method for Increasing Enzymatic Reactivity” (RIKEN, priority 2008, published 2011)", "key": {"restriction enzyme PstI [1]": {"tested_on": "restriction enzyme PstI", "assay": "PstI cleavage reactions with different distances from bead or plate surface to the DNA cleavage site", "format": "biochemical", "conditions": "0.6 M trehalose vs none; cleavage site 20 bp, 50 bp, 100 bp from surface; beads and plates", "description": "Three biotin-labeled DNA fragments I, II, and III (Seq. ID Nos. 4 to 6, Scheme 4) were cleaved at their respective restriction enzyme PstI site and the size of the DNA fragments released was examined. Paramagnetic streptavidin beads were washed with the accessory 1× binding buffer and recovered with a magnetic stand to remove the supernatant. They were then suspended in identical buffer. To each of the three types of biotin-labeled DNA fragments (500 ng) was admixed an equal volume of 2× binding buffer, the bead solution was added, and the mixture was stirred gently for 15 minutes with top to bottom inversion and rotation to induce adsorption. The beads to which the sample had adsorbed were recovered with the magnetic stand, washed three times with 1× binding buffer, and washed one more time with 1× PstI buffer. […] The precipitate of DNA fragments obtained was dissolved in 1× TE (pH 7.5) and analyzed with Bioanalyzer DNA 1000 assay (Agilent Technologies).\nThree biotin-labeled DNA fragments I, II, and III (Seq. ID Nos. 4 to 6, Scheme 4) were cleaved at their respective restriction enzyme PstI site and the size of the DNA fragments released was examined. […] The precipitate of DNA fragments obtained was dissolved in 1× TE (pH 7.5) and analyzed with Bioanalyzer DNA 1000 assay (Agilent Technologies). […]"}, "restriction enzyme PstI [2]": {"tested_on": "restriction enzyme PstI", "assay": "PstI cleavage reaction on a horizontal plate surface (DNA fragment III)", "format": "biochemical", "conditions": "horizontal plates, 0.6 M trehalose vs none", "description": "Biotin-labeled DNA fragment III (Seq. ID No. 6, Scheme 4) was cleaved at the restriction enzyme PstI site on a horizontal streptavidin coated plate surface and the 104 by DNA fragment released was examined. To the DNA fragment III (500 ng) was admixed an equal volume of 2× binding buffer. The mixture was added to the wells of a plate that had been washed with 1× binding buffer and stirred and adsorbed while being gently vibrated for 15 minutes at room temperature. The supernatant was removed, washed three times with 1× binding buffer, and washed once with 1× PstI buffer. Two types of reaction solution (1× PstI buffer, 1× BSA restriction enzyme 40 units) were prepared: a trehalose (+) system to which D(+)-trehalose was added to a final concentration of 0.6 M, and a trehalose (−) system to which no trehalose was added. Each of the reaction solutions was added to wells that had been washed, and then reacted for three hours at 37° C. Cleavage was conducted with restriction enzyme. The supernatant containing the DNA fragments that had been released was recovered, reacted with proteinase K, treated with phenol chloroform, and precipitated from ethanol. The precipitate of DNA fragments obtained was dissolved in 1× TE (pH 7.5) and analyzed with Bioanalyzer DNA 1000 assay (Agilent Technologies)."}, "[3]": {"tested_on": "sequencing enzyme reaction solution of a Genome Sequencer FLX system", "assay": "Sequencing reaction of the 454 sequencing system (Genome Sequencer FLX)", "format": "biochemical", "conditions": "trehalose 0.15 M and 0.3 M in sequencing reaction vs none", "description": "In the 454 sequencing system described in 11 above, trehalose was added to the reaction solution to a final concentration of 0.3 M, the sequencing reaction was conducted, and the effect on the sequencing level was observed.\nD(+)-trehalose was added to the sequencing enzyme reaction solution of a Genome Sequencer FLX system and the effects were measured. Two experiments were conducted with final D(+)-trehalose concentrations of 0.15 M and 0.3 M. The ratio of the read length to the decodable sample was employed for comparison.\nThe D(+)-trehalose employed was D(+)-trehalose dihydrate (201-02253 reagent grade) (Wako). A GS LR 25 Sequencing Kit (502906) was employed for sequencing with the Genome Sequencer FLX system. The samples employed here were a PolyA minus full length cDNA library prepared in-house and human genome prepared according to the manufacturer's protocol.\nThe D(+)-trehalose dihydrate (201-02253 reagent grade) (Wako) was added in the following proportion to the Buffer CB among the reagents contained in the GS LR 25 Sequencing Kit (502906).\nThe mixture was stirred with a magnetic stirrer. Once dissolution had been visually confirmed, the mixed solution was passed through a filter (filter pore system 0.22 micrometer). Following filtration, precisely the required 2× 1000 mL quantities were collected from the mixed solution. […]"}, "[4]": {"assay": "State of streptavidin bead reaction solution during enzymatic reaction", "format": "physicochemical", "conditions": "0.6 M additive; extended / three hours restriction enzyme reaction", "from_the_text": "Thus, with no nonuniformity in enzymatic activity, the various enzymatic reactions were promoted and the quantity of target DNA recovered increased.\nThis was attributed to characteristics such as the viscosity and diffusing effect of trehalose or sorbitol."}}, "data": [{"smiles": "OC[C@H]1O[C@H](O[C@H]2O[C@H](CO)[C@@H](O)[C@H](O)[C@H]2O)[C@H](O)[C@@H](O)[C@@H]1O", "note": "[trehalose, D(+)-trehalose]", "values": [{"measurement": "yield of DNA released by cleavage", "setting": "restriction enzyme PstI [1]", "result": "increase"}, {"measurement": "yield of released DNA fragment", "setting": "restriction enzyme PstI [2]", "result": "higher yield"}, {"measurement": "number of sequences", "setting": "[3]", "result": "increased the number of sequences"}, {"measurement": "uniformity of beads in the reaction solution", "setting": "[4]", "result": "maintaining better uniformity in the reaction solution"}]}]}
